{"source": "patent US20220233503A1", "about": "“METHODS OF TREATING SEPSIS WITH SYNAPTIC VESICLE 2A AND/OR 2B BINDING CHEMICAL ENTITIES” (INSTITUT PASTEUR, priority 2016, published 2022)", "key": {"[1]": {"tested_on": "CLP mice", "test": "Sepsis score after CLP", "assay_type": "in vivo, C57Bl/6 mice", "settings": "evaluated every 12 hours", "procedure": "Analgesia and rehydration of mice were performed with buprenorphine (0.1 mg/Kg, Buprecare, Axience, Pantin, France) every 12 hours until complete recovery. […] Clinical scoring: Sepsis severity was evaluated twice a day until day 4, or normalization of «sepsis score», a previously described score that ranges from […]. This score evaluates markers of local (abdominal spasm) and systemic reaction to sepsis (rectal temperature, fur erection, abnormal breathing), behavioural alterations (feces cleaning, presence of periocular dried eyedrop, incomplete palpebral opening, spontaneous activity in the cage, the escape attempt after tail grabbing) and signs of muscular weakness (grip strength, body tone, difficulty to walk). Each item was scored 0 or 1, with a total score rang from 0 (normal) to 12 (highly severe). For ethical reason, mice with a sepsis score ≥8 and a temperature ≤34.5° C. were euthanized as they were considered to almost certainly die within the 12 hours.\nFIG. 1C. Sepsis score was evaluated every 12 hours (general state criteria, temperature, fur erection, respiratory rate, sickness behaviour, spontaneous activity in the home cage, lacrimation, palpebral closure, feces toilet, locomotor criteria, grip strength, difficulties walking, local reaction, abdominal wall contraction, axial body tone). Datas are presented as mean±SEM."}, "[2]": {"tested_on": "CLP mice", "test": "Open field test after sepsis", "assay_type": "in vivo", "settings": "septic mice, 10 days after sepsis, vs saline", "procedure": "[…] The experimentator was blinded to the experimental group.\nOpen Field Mice were placed 45 minutes before being held in the experimental room. Single mice were then placed in a squared 40 cm box in an experimental room and captured with a camera during 10 minutes. Mice were tracked using Ethovision XT and their tail, nose and barycenter was marked. The total length walked, the ratio of time spent moving/non moving, the maximum velocity and the mean distance from barycenter to arena's center were recorded. Datas are presented as Mean±SEM.\nDatas are presented as mean±SEM. Sepsis presented a persisting effect on locomotor functions:sepsis lowered the distance traveled (E, p<0.05), increased the time spent not moving (F, p<0.05) and the mean distance to center (G, p<0.05) compared to control mice."}, "[3]": {"tested_on": "CLP mice", "test": "Fear conditioning test after sepsis", "assay_type": "in vivo", "procedure": "(§1) Comportemental tests: Every comportemental tests were started 15 days after sepsis induction. The experimentator was blinded to the experimental group.\nFear conditioning. Mice underwent the classical fear conditioning test with a cued stimulus (auditory tone) and an uncued stimulus (electric shock). During two consecutive conditioning trials, 2 minutes resting followed by a 48s tone ([…] tone, 60 db) and 5 electrical footshocks of 2 joules during 2 seconds. Twenty four hours after conditioning, mice underwent the fear memory recall after exposition to a contextual stimulus (shock cage in the same configuration without auditory tone) or an auditory stimulus (Auditory tone in a different cage with a vanilla artificial odor). Freezing was evaluated for 2 seconds every 8 seconds and was defined as the absence of movement of the mouse with tail erection. Percentage of 10 seconds period freezing was reported to the total amount of freezing."}, "[4]": {"tested_on": "CLP mice", "test": "Morris water maze after sepsis", "assay_type": "in vivo", "text": "as §1\nMorris Water Maze was realized as described by Vorhees et al. Nature Protocols 2006. It consisted in a phase of spatial learning and a probe trial. During the first phase the animal learns spatial position of a platform (11 cm diameter) hidden in a swimming pool (120 cm diameter) with opaque water relatively to cues placed on the water tank and in the experimental room. The animal is released in a random quadrant 4 times per day during 7 days. The distance (cm) before reaching the platform, the latency (s) and the proportion of time spent in each quadrant is measured. After each day the learning curve of mice reaching the platform is drawn. If this curve reached a plateau, the probe trial is realized the next day. Probe trial consists in a recall of the spatial reference memory.\n(§2) Figures J-M. Morris water Maze test (MWM) and Novel Object Location/Recognition tests."}, "[5]": {"tested_on": "CLP mice", "test": "Novel object location/recognition tests after sepsis", "assay_type": "in vivo", "settings": "septic mice, treated or not", "procedure": "as §1\nNovel Object Recognition Test: Tests comprise three phases: habituation, familiarization and test phase. During the first 20 minutes animals were placed in a transparent arena under a 100 lux light that had three compartments separated with one-holed plexiglass walls. Two objects were used (a plastic power plug and a brass bolt). During the next 10 minutes two similar objects (A,A) were placed in the lateral compartments. We considered that mice were exploring the objects when they were climbing or explore it with their nose. Immediately after mice were replaced in the center of arena and two new objects (A,B) were placed in the compartments. The ratio of time spent exploring objects A and ratio of time exploring object AB were compared.\nas §2"}, "[6]": {"tested_on": "CLP mice", "test": "Elevated plus maze test after sepsis", "assay_type": "in vivo", "settings": "levetiracetam vs placebo treated CLP mice", "procedure": "Elevated plus maze test: Mice home cage was placed in the experimental room 45 minutes prior any handling. Mice were placed in cross shaped 40 cm maze consisting in 2 open arms without walls and 2 closed arms with 30 cm opaque walls. Mice were tracked with ethovision XT during 5 minutes trials. The maximum velocity, total distance walked, number of entries in an open arm, and amount of time spent in an opened arm or in a closed arm were recorded. Datas are presented as Mean±SEM.\n(§3) FIG. 2: Innate anxiety behavior and depressive phenotype was investigated with the elevated plus maze and splash test."}, "[7]": {"tested_on": "CLP mice", "test": "Splash test after sepsis", "assay_type": "in vivo", "settings": "levetiracetam vs placebo treated CLP mice", "procedure": "Splash test: Mice were placed in a new cage 45 minutes before testing in the experimental room. They were then held onto a grid and 200 μl of sucrose 10% solution was spray on their back's fur. They were then placed in the home cage for 5 minutes. The latency before the first time mice groomed, the number of cleaning sessions and the total amount of time spent cleaning during the 5 minute test were measured. Mice were then placed back in their cage. Datas are presented as Mean±SEM.\nas §3"}, "[8]": {"tested_on": "TNF alpha, IL1 beta", "test": "ELISA assay on brain parenchyma after sepsis", "assay_type": "in vivo, mice", "settings": "during sepsis", "experimental": "FIG. 3C—An ELISA assay was performed on brain parenchyma to detect lower changes in cytokine concentration."}, "[9]": {"tested_on": "Caspase 3", "test": "Caspase 3 cleavage and apoptotic cell count in brain after sepsis", "assay_type": "in vivo", "settings": "septic mice, Western blot cleaved caspase 3 vs procaspase 3, whole brain", "quoted_text": "A—Western Blot from cleaved caspase 3 from macerated brain parenchyma. B—Mean±SEM of ratios between intensity of cleaved caspase 3 vs. procaspase 3. […] D-G Cell count for late and early stage of apoptosis. WM Whitte matter, DG, Dentate Gyms, CC3 Cleaved Caspase 3."}, "[10]": {"tested_on": "Inducible NO synthase gene (inos)", "assay_type": "cell-based, murine", "settings": "24 hours", "text": "NO: 53) and anti-sense primer:[…] NO: 54). […] ID NO: 55) and anti-sense primer […] NO: 56). […] NO: 57) and anti-sense primer:[…] NO: 58)."}, "[11]": {"tested_on": "peripheral nervous system", "settings": "septic rats, single dose of 300, 600 or 1200 mg/kg one hour after surgery; cited from earlier work"}, "[12]": {"tested_on": "rats treated to model traumatic brain injury", "settings": "54 mg/kg or 170 mg/kg single perfusion 15 minutes after injury; cited from earlier work"}}, "note": "Where two headings read alike, the source gives them in different places.", "data": [{"compound": "CC[C@@H](C(N)=O)N1CCCC1=O", "note": "(single isomer, unassigned) [levetiracetam]", "values": [{"measurement": "sepsis score vs placebo", "setting": "[1]", "value": "did not differ"}, {"measurement": "open field distance traveled (sepsis-associated lowering)", "setting": "[2]", "value": "did not influenced"}, {"measurement": "open field time spent not moving", "setting": "[2]", "value": "did not influenced"}, {"measurement": "open field mean distance to center", "setting": "[2]; p=0.043 Mann-Whitney", "value": "decreased"}, {"measurement": "motor response to electric shock during conditioning period", "setting": "[3]; between groups", "value": "did not differ"}, {"measurement": "auditory freezing time", "setting": "[3]; levetiracetam treated vs placebo treated CLP mice, p=0,024", "value": "lower"}, {"measurement": "Morris water maze learning to locate the platform (AUC of learning curve)", "setting": "[4]; septic mice", "value": "did not present an effect"}, {"measurement": "Morris water maze test day time in platform quadrant", "setting": "[4]; test day (probe trial), all groups", "value": "same amount of time"}, {"measurement": "time on novel vs familiar object", "setting": "[5]", "value": "same amount of time"}, {"measurement": "innate anxiety (elevated plus maze)", "setting": "[6]", "value": "No difference"}, {"measurement": "depressive phenotype (splash test)", "setting": "[7]", "value": "No difference"}, {"measurement": "TNF alpha expression in brain parenchyma (ELISA)", "setting": "[8]", "value": "No difference"}, {"measurement": "IL1 beta in brain parenchyma (ELISA)", "setting": "[8]; p<0.05", "value": "increased"}, {"measurement": "cleavage of Caspase 3 in the brain", "setting": "[9]", "value": "reduces"}, {"measurement": "inos expression", "setting": "[10]; high dose LPS challenge", "value": "failed to modulate"}, {"measurement": "inos expression", "setting": "[10]; high dose levetiracetam, low dose LPS challenge", "value": "lowered"}, {"measurement": "effects on the peripheral nervous system", "setting": "[11]", "value": "broad spectrum of protective and restorative effects"}, {"measurement": "cognitive outcome", "setting": "[12]", "value": "improved"}]}]}
